Results taken from patent publication US20150157604A1, “PHARMACEUTICAL COMPOSITION FOR THE PROPHYLAXIS AND TREATMENT OF PSYCHOLOGICAL, BEHAVIORAL AND COGNITIVE DISORDERS” (LTD << VALENTA-INTELLEKT >>, priority 2012, published 2015).

How the values were obtained:
cerebral edema = conditions: rats; second administration; cited from earlier work
[1] = cited from earlier work
[2] = system: dopamine concentration in the forebrain regions; conditions: cited from earlier work
[3] = system: patients with mixed dementia and patients with Alzheimer's disease; test: Study of pharmacological activity: half-year neurological study (MMSE, visual and aural-speech memory, clock drawing test, Schulte Table); format: in vivo, human
From the text: The subjects under the study have been 25 patients with mixed dementia and 12 patients with Alzheimer's disease. The average age of the patients is 70±3 years. Dementia has been diagnosed in accordance with the dementia criteria under ICD-10 [International statistic classification of diseases and problems relating to health. Tenth revision (ICD-10). V.1 (Part 1). Geneva: WHO, 1995; p. 315, 510-1]. Dimentia severity has been assessed according to Clinical Dementia Rating Scale—CDR [Hughes C P, Berg L, Danziger W L et al. A new clinical scale for the staging of dementia. Brit J Psychiatry 1982; 140: 566-72]. In the group of patients with mixed dementia it is 1.2±0.3, and in the group with Alzheimer's disease—1.1±0.36. All the patients have been subdivided into two groups. The first group has received […] of memantine once a day. The second group received capsules according to Example 4. A complex neurological study has been conducted with the patients for half a year, the study included brief evaluation of mental status (MMSE), a test for visual and aural-speech memory under the dementia scale, the clock drawing test as well as the test for attention—Schulte Table. The outcome has been processed with the use of the statistical package for social sciences (SPSS), Version 10.0.

Structure (SMILES) | reduction of the volume of cerebral edema (cerebral edema) | time to concentration peak in the brain ([1]; after a single dosing) | half-life ([1]; in vivo) | dopamine concentration ([2]; after a single dosing) | rise of dopamine concentration in the forebrain regions ([2]; during prolonged administration) | increase of clock drawing test ([3]; in 6 months) | increase of total score of the mental status evaluation (MMSE) ([3]; in 6 months, patients with mixed dementia or Alzheimer's disease) | lowering of Schulte test ([3]; in 6 months, test for attention) | increase of visual memory ([3]; in 6 months, test under the dementia scale) | patients with positive therapeutic effect ([3]; patients with Alzheimer's disease) | patients with positive therapeutic effect ([3]; patients with mixed dementia) | side effects ([3]; patients, half-year study)
COc1ccc2[nH]cc(CCNC(C)=O)c2c1 [melatonin, N-acetyl-5-methoxytriptamine] | 2 times | – | – | – | – | – | – | – | – | – | – | –
CC12CC3CC(C)(C1)CC(N)(C3)C2 [memantine, 1-amino-3,5-dimethyladamantan] | – | one | approximately 100 hours | remains unchanged | ≥ 10 times | 0.2±0.1 | 1.5±0.3 | 20.5±3.6 | 0.5±0.2 | 25% | 86% | increase in the intracranial pressure was observed
